The record followed here is patent publication US20140377340A1, “HLA-DR BINDING PEPTIDES AND THEIR USES” (priority 2007, published 2014).

One assay concerns the target T1, purified HLA DRB1*1501 (Homo sapiens, UniProt P01903+P01911).
T1 construct: purified from EBV transformed homozygous cell lines or single MHC allele transfected 721.221, C1R, or fibroblast lines; made in house
The assay can be described thus: HLA-DR radioligand binding inhibition assay, DRB1*1501. Here is the method:
(§1) Instead, wells of an opaque white 96-well Optiplate (Packard) are coated with 3 μg (100 μl@ 30 μg/ml) of HLA-specific antibody (Ab) that “capture” complexes of radiolabeled MHC and unlabeled peptide transferred from the molecular binding assay plate in 100 μl of 0.05% NP40/PBS. After a 3-hour incubation period, the supernatant is decanted and scintillation fluid (Microscint 20) added. Captured complexes are then measured on a microplate scintillation and luminescence counter (TopCount NXTTM; Packard).
(§2) HLA-DR purification. Fifteen distinct HLA-DR molecules were used in quantitative assays to measure the binding of peptides to solubilized HLA-DR molecules. […] Briefly, columns of inactivated Sepharose CL4B and Protein A Sepharose were used as pre-columns. HLA-DR molecules were captured by passage of lysates over LB3.1 monoclonal antibody (anti-HLA-DRA) columns. Antibody columns were washed with 10 mM Tris-HCL, pH8.0 with 1% (v/v) NP-40, followed by PBS containing 0.4% (w/v) n-octylglucoside.
(§3) Briefly, 1-10 nM of radiolabeled peptide was co-incubated for 2 days at either room temperature or 37° C. with 1 μM to 1 nM purified HLA-DR molecules in the presence of a cocktail of protease inhibitors. Assays were performed at various pH conditions, ranging from pH 4 to pH 7. […] After incubation, the percentage of HLA-DR-bound radioactivity is determined by capturing HLA-DR/peptide complexes on Optiplates (Packard Instruments, Meriden, Conn.) coated with the LB3.1 antibody and determining bound counts per minute using the TopCount microscintillation counter (Packard Instruments).

Another assay addresses T2, purified HLA DRB1*0405 (Homo sapiens, UniProt P01903+P01911, A100R/A169T/D86S/F76Y/I96L/K127E/L162R/M171V/N62H/P40V/Q125Y/R42H/S133A/S149N/S66Y/V115G/V209L/W38E).
T2 construct: purified from EBV transformed homozygous cell lines or single MHC allele transfected 721.221, C1R, or fibroblast lines; made in house
The assay can be described thus: HLA-DR radioligand binding inhibition assay, DRB1*0405. The note with it: IC50 nM purified HLA DRB1 *0405, purified HLA DRB1*0405. Here is the method: as §1, §2, §3

A further assay addresses T3, purified HLA DRB1*0701 (Homo sapiens, UniProt P01903+P01911, A100R/A102G/A103Q/D57E/D86V/E43K/F76Y/K127E/L162R/M171V/P40G/Q125H/Q99D/R33Q/R42Y/R54Q/S133A/S66F/T210M/V115G/Y107V/Y59L/Y89S).
T3 construct: purified from EBV transformed homozygous cell lines or single MHC allele transfected 721.221, C1R, or fibroblast lines; made in house
The assay can be described thus: HLA-DR radioligand binding inhibition assay, DRB1*0701. The settings on record: IC50 nM purified HLA DRB1 *0701, purified HLA DRB1*0701. Here is the method: as §1, §2, §3

A further assay has as its target T4, purified HLA DRB5*0101 (Homo sapiens, UniProt P01903+Q30154).
T4 construct: purified from EBV transformed homozygous cell lines or single MHC allele transfected 721.221, C1R, or fibroblast lines; made in house
Briefly: HLA-DR radioligand binding inhibition assay, DRB5*0101. The settings on record: IC50 nM purified HLA DRB5 *0101, purified HLA DRB5*0101. Here is the method: as §1, §2, §3

Another assay deals with T5, purified HLA DRB1*1101 (Homo sapiens, UniProt P01903+P01911, A100R/A169T/A87E/I96F/K41T/L162R/M171V/P40S/Q125H/Q178H/Q39Y/Q99D/R42S/S66Y/T262R/V115G/W38E).
T5 construct: purified from EBV transformed homozygous cell lines or single MHC allele transfected 721.221, C1R, or fibroblast lines; made in house
T5 sequence (P01903 26-254, other chains not shown): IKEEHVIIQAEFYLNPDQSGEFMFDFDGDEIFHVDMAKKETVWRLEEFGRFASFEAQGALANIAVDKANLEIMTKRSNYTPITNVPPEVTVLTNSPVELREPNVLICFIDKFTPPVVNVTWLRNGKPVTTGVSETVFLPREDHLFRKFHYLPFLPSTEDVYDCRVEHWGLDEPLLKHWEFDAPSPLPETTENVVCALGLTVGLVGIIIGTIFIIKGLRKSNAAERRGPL
The assay can be described thus: HLA-DR radioligand binding inhibition assay, DRB1*1101. The settings on record: IC50 nM purified HLA DRB1 *1101, purified HLA DRB1*1101. As for the experimental part: as §1, §2, §3

Another assay concerns the target T6, purified HLA DRB1*0401 (Homo sapiens, UniProt P01903+P01911, A100K/A169T/F76Y/I96L/K127E/L162R/M171V/N62H/P40V/Q125Y/R42H/S133A/S149N/S66Y/V115G/V209L/W38E).
T6 construct: purified from EBV transformed homozygous cell lines or single MHC allele transfected 721.221, C1R, or fibroblast lines; made in house
Briefly: HLA-DR radioligand binding inhibition assay, DRB1*0401. The settings on record: IC50 nM purified HLA DRB1 *0401, purified HLA DRB1*0401. As for the experimental part:
as §1, §2, §3

By IC50 is commonly meant the point on the concentration scale where inhibition reaches its midpoint. Read a low IC50 as higher potency. Consider `CC[C@H](C)[C@H](NC(=O)[C@H](CCC(=O)O)NC(=O)[C@@H](NC(=O)[C@H](CC(C)C)NC(=O)[C@H](CO)NC(=O)[C@H](CCCNC(=N)N)NC(=O)[C@H](CC(C)C)NC(=O)[C@H](CCC(N)=O)NC(=O)[C@H](CC(C)C)NC(=O)[C@H](CCC(=O)O)NC(=O)[C@H](CCCNC(=N)N)NC(=O)[C@H](CC(C)C)NC(=O)CNC(=O)CNC(=O)[C@@H]1CCCN1)[C@@H](C)O)C(=O)O` [Peptide 9019.0038], for which the concentration for half-maximal inhibition (IC50) was 4410 nM at purified HLA DRB1*1501 and 110 nM at purified HLA DRB1*0405.

Turning to `CC[C@H](C)[C@H](NC(=O)[C@@H](NC(=O)[C@H](CCC(=O)O)NC(=O)[C@H](CCCCN)NC(=O)[C@H](CCSC)NC(=O)[C@H](CCCCN)NC(=O)[C@H](CO)NC(=O)[C@H](C)NC(=O)[C@@H](NC(=O)[C@H](Cc1ccccc1)NC(=O)[C@H](CCSC)NC(=O)[C@H](CS)NC(=O)[C@@H](N)[C@@H](C)O)C(C)C)[C@@H](C)O)C(=O)N1CCC[C@H]1C(=O)N[C@@H](CC(C)C)C(=O)O` [Peptide 9019.0157], the figures for the IC50 on purified HLA DRB1*0701, on purified HLA DRB5*0101 and on purified HLA DRB1*1101 were 17 nM, 36 nM and 61 nM, respectively.

`CC[C@H](C)[C@H](NC(=O)[C@@H](NC(=O)[C@@H]1CCCN1C(=O)[C@H](C)NC(=O)[C@H](CC(=O)O)NC(=O)[C@@H]1CCCN1C(=O)CNC(=O)[C@H](Cc1ccc(O)cc1)NC(=O)[C@H](CC(C)C)NC(=O)[C@@H](NC(=O)[C@H](CC(N)=O)NC(=O)[C@@H](N)CC(C)C)C(C)C)[C@@H](C)O)C(=O)N[C@@H](CO)C(=O)N1CCC[C@H]1C(=O)N[C@@H](CC(C)C)C(=O)O` [Peptide 9019.0120]: the IC50 on purified HLA DRB1*0701 is 410 nM; at purified HLA DRB5*0101 it was greater than 20000 nM; at purified HLA DRB1*1101, greater than 20000 nM; at purified HLA DRB1*0405 it was greater than 20000 nM.

As to `CC(C)[C@H](NC(=O)[C@H](Cc1ccccc1)NC(=O)[C@H](Cc1c[nH]c2ccccc12)NC(=O)[C@H](CO)NC(=O)[C@H](Cc1ccc(O)cc1)NC(=O)[C@@H](N)CCC(N)=O)C(=O)N[C@@H](CC(N)=O)C(=O)NCC(=O)N[C@H](C(=O)N[C@@H](Cc1ccccc1)C(=O)N[C@@H](CCC(N)=O)C(=O)N[C@@H](CCC(N)=O)C(=O)N[C@@H](CO)C(=O)N[C@H](C(=O)N[C@@H](CCC(N)=O)C(=O)O)[C@@H](C)O)[C@@H](C)O` [Peptide 9019.0122], the half-inhibitory concentration (IC50) on purified HLA DRB1*0401 was 21 nM; on purified HLA DRB1*1501 it was greater than 20000 nM; at purified HLA DRB1*1101, 230 nM.

In the case of `CC(C)C[C@H](NC(=O)CNC(=O)[C@H](CC(C)C)NC(=O)[C@H](Cc1c[nH]cn1)NC(=O)[C@H](Cc1c[nH]cn1)NC(=O)[C@H](CCCCN)NC(=O)CN)C(=O)N[C@@H](CCC(=O)O)C(=O)N[C@@H](CCC(=O)O)C(=O)N1CCC[C@H]1C(=O)N[C@@H](CCCCN)C(=O)N[C@@H](CCCCN)C(=O)N[C@@H](CC(C)C)C(=O)N[C@@H](CCCNC(=N)N)C(=O)N1CCC[C@H]1C(=O)O` [Peptide 9019.0187], the half-maximal inhibitory concentration (IC50) on purified HLA DRB1*0701 turned out to be 3100 nM; at purified HLA DRB1*1101 it was 16800 nM; at purified HLA DRB1*0405, 6480 nM.

`CC[C@H](C)[C@H](NC(=O)[C@H](CCC(N)=O)NC(=O)[C@H](CCSC)NC(=O)[C@H](CS)NC(=O)[C@H](Cc1c[nH]c2ccccc12)NC(=O)[C@H](CC(N)=O)NC(=O)[C@H](CC(C)C)NC(=O)[C@@H](N)CC(C)C)C(=O)N[C@@H](C)C(=O)N[C@@H](CCCCN)C(=O)NCC(=O)N[C@@H](CCSC)C(=O)N[C@@H](CO)C(=O)N[C@@H](Cc1ccc(O)cc1)C(=O)N[C@@H](CC(C)C)C(=O)O` [Peptide 9019.0082]: the IC50 at purified HLA DRB1*0701 amounted to 380 nM; on purified HLA DRB5*0101, 92 nM.
